Data on two compounds can be found in patent US20260231948A1, “AN HERBICIDAL COMBINATION, COMPOSITION AND METHOD OF CONTROLLING WEEDS USING THE SAME” (priority 2023, published 2026).

Test [1] concerns Viola arvensis, Bromus spp., Lolium spp., Agropyron repens and Urtica urens. The conditions noted are these: Hoechst et al., 1991; cited from earlier work.
In a further test the test system is Brachiaria decumbens. In words: Greenhouse post-emergence herbicidal activity on Brachiaria decumbens. It is filed as in vivo. The procedure:
The expected efficacy of a combination of L-glufosinate ammonium and the other herbicides was calculated using the well-established Colby method. Any difference between the observed and “expected” efficacy could be attributed to synergy between the two compounds.
In the Colby method, the expected (or predicted) response of a combination of herbicides is calculated by taking the product of the observed response for each individual component of the combination when applied alone, divided by 100, and subtracting this value from the sum of the observed response for each component when applied alone. An unexpected enhancement in efficacy of the combination is then determined by comparing the observed response of the combination to the expected (or predicted) response as calculated from the observed response of each individual component alone. If the observed response of the combination is greater than the expected (or predicted) response, or stated conversely, if the difference between the observed and expected response is greater than zero, then the combination is said to be synergistic or unexpectedly effective (Colby, S. R., Weeds, 1967(15), p. 20-22). […]
The percentage efficacy was calculated at 7, 14, 21 and 28 days after application (DAA). The target weed was Brachiaria decumbens, and the concentration of the herbicide and the results are recorded Table 1.

For the compound `CP(=O)(O)CCC(N)C(=O)O` (racemic) [glufosinate, DL-homoalanin-4-yl(methyl)phosphinic acid], the “Control of weed species by glufosinate” value in test [1] is “either not combated, or only weakly combated”.

In the case of `CS(=O)(=O)c1cc(C(F)(F)F)ccc1C(=O)c1cnoc1C1CC1` [isoxaflutole], the “Observed efficacy (%) of isoxaflutole (60 g a.i./ha)” value worked out at 45% in the test on Brachiaria decumbens (7 DAA) and 70% in the test with Brachiaria decumbens (14 DAA).
